Measurements from patent US7655629B2, “Peptides and their use for the treatment of HIV infections” (priority 2002, dated 2010).
Non-standard residues stand in square brackets, D forms with d. Residues, ends and D or L forms follow the SMILES beside them. Phe(4-F) = N[C@@H](Cc1ccc(F)cc1)C(=O)O; 1Nal = N[C@@H](Cc1cccc2ccccc12)C(=O)O; Bta = N[C@@H](Cc1csc2ccccc12)C(=O)O; 4Pal = N[C@@H](Cc1ccncc1)C(=O)O; Tic = O=C(O)[C@@H]1Cc2ccccc2CN1; 3Thi = N[C@@H](Cc1ccsc1)C(=O)O

Key:
HIV-1 NL4-3 DTV = conditions: read-out: IC50 DTV, P4-CCR5 cells, peptide 2 h before infection, readout three days after infection
How it was run: (§1)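 P4-CCR5 cells (CD4, CCR5, CXCR4, HIV-1 promoter-driven β-galactosidase) pretreated 2 h with peptide, then infected with virus containing 1 ng p24 antigen and incubated overnight. Cells washed and cultured without peptide; three days post-infection infectivity read by chemiluminescent β-galactosidase assay, in quintuplicate.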

X4-tropic HIV-1 NL4-3 = conditions: for IC50: read-out: IC50 NL4-3, P4-CCR5 cells, HIV-1 NL4-3, peptide 2 h before infection, readout three days after infection
How it was run: as §1

Row | Compound | IC50 (HIV-1 NL4-3 DTV) [nM] | IC50 (X4-tropic HIV-1 NL4-3) [nM] | increase in anti-HIV activity in comparison to VIRIP (X4-tropic HIV-1 NL4-3; from IC50 against two HIV-1 strains (NL4-3, DTV)) [fold]
1 | CC[C@H](C)[C@H](NC(=O)[C@H](C)NC(=O)[C@H](CCC(=O)O)NC(=O)[C@@H](N)CC(C)C)C(=O)N1CCC[C@H]1C(=O)N[C@@H](CCSC)C(=O)N[C@@H](CO)C(=O)N[C@H](C(=O)N1CCC[C@H]1C(=O)N1CCC[C@@H]1C(=O)N[C@@H](CCC(=O)O)C(=O)N[C@@H](Cc1cccc2ccccc12)C(=O)N[C@@H](C)C(=O)N[C@@H](Cc1ccccc1)C(=O)N[C@@H](CC(N)=O)C(=O)N[C@@H](CCCCN)C(=O)N1CCC[C@H]1C(=O)N[C@@H](Cc1ccccc1)C(=O)N[C@H](C(=O)N[C@@H](Cc1ccccc1)C(=O)O)C(C)C)[C@@H](C)CC [VIR-258, LEAIPMSIPpE(1-naphthylalanine)AFNKPFVF] (H-LEAIPMSIP[dP]E[1Nal]AFNKPFVF-OH) | 620 | 640 | 
2 | CC[C@H](C)[C@H](NC(=O)[C@H](C)NC(=O)[C@H](CCC(=O)O)NC(=O)[C@@H](N)CC(C)C)C(=O)N1CCC[C@H]1C(=O)N[C@@H](CCSC)C(=O)N[C@@H](CO)C(=O)N[C@H](C(=O)N1CCC[C@H]1C(=O)N1CCC[C@@H]1C(=O)N[C@@H](CCC(=O)O)C(=O)N[C@@H](Cc1ccc(F)cc1)C(=O)N[C@@H](C)C(=O)N[C@@H](Cc1ccccc1)C(=O)N[C@@H](CC(N)=O)C(=O)N[C@@H](CCCCN)C(=O)N1CCC[C@H]1C(=O)N[C@@H](Cc1ccccc1)C(=O)N[C@H](C(=O)N[C@@H](Cc1ccccc1)C(=O)O)C(C)C)[C@@H](C)CC [VIR-259, LEAIPMSIPpE(p-fluorophenylalanine)AFNKPFVF] (H-LEAIPMSIP[dP]E[Phe(4-F)]AFNKPFVF-OH) | 1030 | 860 | 
3 | CC[C@H](C)[C@H](NC(=O)[C@H](C)NC(=O)[C@H](CCC(=O)O)NC(=O)[C@@H](N)CC(C)C)C(=O)N1CCC[C@H]1C(=O)N[C@@H](CCSC)C(=O)N[C@@H](CO)C(=O)N[C@H](C(=O)N1CCC[C@H]1C(=O)N1CCC[C@@H]1C(=O)N[C@@H](CCC(=O)O)C(=O)N[C@H](C(=O)N[C@@H](Cc1ccncc1)C(=O)N[C@@H](Cc1ccccc1)C(=O)N[C@@H](CC(N)=O)C(=O)N[C@@H](CCCCN)C(=O)N1CCC[C@H]1C(=O)N[C@@H](Cc1ccccc1)C(=O)N[C@H](C(=O)N[C@@H](Cc1ccccc1)C(=O)O)C(C)C)C(C)C)[C@@H](C)CC [VIR-260, LEAIPMSIPpEV(4-pyridylalanine)FNKPFVF] (H-LEAIPMSIP[dP]EV[4Pal]FNKPFVF-OH) | 2380 | 2150 | 
4 | CC[C@H](C)[C@H](NC(=O)[C@H](C)NC(=O)[C@H](CCC(=O)O)NC(=O)[C@@H](N)CC(C)C)C(=O)N1CCC[C@H]1C(=O)N[C@@H](CCSC)C(=O)N[C@@H](CO)C(=O)N[C@H](C(=O)N1CCC[C@H]1C(=O)N1CCC[C@@H]1C(=O)N[C@@H](CCC(=O)O)C(=O)N[C@H](C(=O)N1Cc2ccccc2C[C@H]1C(=O)N[C@@H](Cc1ccccc1)C(=O)N[C@@H](CC(N)=O)C(=O)N[C@@H](CCCCN)C(=O)N1CCC[C@H]1C(=O)N[C@@H](Cc1ccccc1)C(=O)N[C@H](C(=O)N[C@@H](Cc1ccccc1)C(=O)O)C(C)C)C(C)C)[C@@H](C)CC [VIR-263, LEAIPMSIPpEV(L-Tic)FNKPFVF] (H-LEAIPMSIP[dP]EV[Tic]FNKPFVF-OH) | 330 | 770 | 
5 | CC[C@H](C)[C@H](NC(=O)[C@H](C)NC(=O)[C@H](CCC(=O)O)NC(=O)[C@@H](N)CC(C)C)C(=O)N1CCC[C@H]1C(=O)N[C@@H](CCSC)C(=O)N[C@@H](CO)C(=O)N[C@H](C(=O)N1CCC[C@H]1C(=O)N1CCC[C@@H]1C(=O)N[C@@H](CCC(=O)O)C(=O)N[C@H](C(=O)N[C@@H](Cc1csc2ccccc12)C(=O)N[C@@H](Cc1ccccc1)C(=O)N[C@@H](CC(N)=O)C(=O)N[C@@H](CCCCN)C(=O)N1CCC[C@H]1C(=O)N[C@@H](Cc1ccccc1)C(=O)N[C@H](C(=O)N[C@@H](Cc1ccccc1)C(=O)O)C(C)C)C(C)C)[C@@H](C)CC [VIR-264, LEAIPMSIPpEV(3-benzothienylalanine)FNKPFVF] (H-LEAIPMSIP[dP]EV[Bta]FNKPFVF-OH) | 700 | 590 | 
6 | CC[C@H](C)[C@H](NC(=O)[C@H](C)NC(=O)[C@H](CCC(=O)O)NC(=O)[C@@H](N)CC(C)C)C(=O)N1CCC[C@H]1C(=O)N[C@@H](CCSC)C(=O)N[C@@H](CO)C(=O)N[C@H](C(=O)N1CCC[C@H]1C(=O)N1CCC[C@@H]1C(=O)N[C@@H](CCC(=O)O)C(=O)N[C@H](C(=O)N[C@@H](Cc1ccsc1)C(=O)N[C@@H](Cc1ccccc1)C(=O)N[C@@H](CC(N)=O)C(=O)N[C@@H](CCCCN)C(=O)N1CCC[C@H]1C(=O)N[C@@H](Cc1ccccc1)C(=O)N[C@H](C(=O)N[C@@H](Cc1ccccc1)C(=O)O)C(C)C)C(C)C)[C@@H](C)CC [VIR-265, LEAIPMSIPpEV(3-thienylalanine)FNKPFVF] (H-LEAIPMSIP[dP]EV[3Thi]FNKPFVF-OH) | 2210 | 1290 | 
7 | CC[C@H](C)[C@H](NC(=O)[C@H](C)NC(=O)[C@H](CCC(=O)O)NC(=O)[C@@H](N)CC(C)C)C(=O)N1CCC[C@H]1C(=O)N[C@@H](CCSC)C(=O)N[C@@H](CO)C(=O)N[C@H](C(=O)N1CCC[C@H]1C(=O)N1CCC[C@@H]1C(=O)N[C@@H](CCC(=O)O)C(=O)N[C@H](C(=O)N[C@@H](Cc1c[nH]c2ccccc12)C(=O)N[C@@H](Cc1ccccc1)C(=O)N[C@@H](CC(N)=O)C(=O)N[C@@H](CCCCN)C(=O)N1CCC[C@H]1C(=O)N[C@@H](Cc1ccccc1)C(=O)N[C@H](C(=O)N[C@@H](Cc1ccccc1)C(=O)O)C(C)C)C(C)C)[C@@H](C)CC [VIR-266, LEAIPMSIPpEVWFNKPFVF] (H-LEAIPMSIP[dP]EVWFNKPFVF-OH) | 830 | 590 | 
8 | CC[C@H](C)[C@H](NC(=O)[C@H](C)NC(=O)[C@H](CCC(=O)O)NC(=O)[C@@H](N)CC(C)C)C(=O)N1CCC[C@H]1C(=O)N[C@@H](CCSC)C(=O)N[C@@H](CO)C(=O)N[C@H](C(=O)N1CCC[C@H]1C(=O)N1CCC[C@@H]1C(=O)N[C@@H](CCC(=O)O)C(=O)N[C@H](C(=O)N[C@@H](C)C(=O)N[C@@H](Cc1ccccc1)C(=O)N[C@@H](CC(N)=O)C(=O)N[C@@H](CCCCN)C(=O)N1Cc2ccccc2C[C@H]1C(=O)N[C@@H](Cc1ccccc1)C(=O)N[C@H](C(=O)N[C@@H](Cc1ccccc1)C(=O)O)C(C)C)C(C)C)[C@@H](C)CC [VIR-268, LEAIPMSIPpEVAFNK(L-Tic)FVF] (H-LEAIPMSIP[dP]EVAFNK[Tic]FVF-OH) | 1480 | 1730 | 
9 | H-LEAIPMSIPPEFAFNKDFVF-OH [VIR-243] | 1980 | 2160 | 
10 | H-LEAIPMSIPPEIAFNKPFVF-OH [VIR-184] | 5390 | 1990 | 4
11 | H-LEAIPMSIPPELAFAKPFVF-OH [VIR-182] | 2970 | 2250 | 
12 | H-LEAIPMSIPPEVFFGKPFVF-OH [VIR-170] | 2000 | 1520 | 
